Holding throughout (assay): NCI anticancer screen, dose series, 48 h
For assay [1], the system named is SF-295 CNS.
For assay [2], the system named is HL-60(TB) leukemia.
In assay [3] the test system is HOP-62 NSCLC.
For assay [4], the system named is MCF7 breast.
The subject of assay [5] is HT29 colon.
The subject of assay [6] is HCT-15 colon.
Assay [7] concerns MDA-MB-435.
In assay [8] the test system is IGROV1 ovarian.
Assay [9] concerns RXF 393 renal.
The subject of assay [10] is UACC-257 melanoma.

SMILES strings stand for the structures.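 Results reflect a 48-hour exposure of cells in 96-well plates to compound at five concentrations. GI50 is the concentration that inhibits growth by half. At the TGI there is no net growth.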 Some results are limits rather than exact numbers.

Take `Cc1[nH]c2ccc(F)cc2c1-c1nc2c3cccnc3c3ncccc3c2[nH]1`: the GI50 in assay [1] was 0.428 µM; in assay [2], 0.241 µM; in assay [3], 0.305 µM; in assay [4], 0.361 µM; in assay [5], 0.479 µM; in assay [6], 0.387 µM. Further, the GI50 in [7] is 0.426 µM; in [8] it was 0.374 µM; in assay [9] it was 0.354 µM. Also, the TGI in assay [1], in assay [3], in assay [4], in assay [5], in [6] and in assay [7] was > 100 µM throughout. Moreover, the TGI in [8] and in [9] was > 100 µM in each case.
As for `Cc1nn(-c2ccc([N+](=O)[O-])cc2)c2ncnc(N/N=C/c3ccccc3O)c12`, the GI50 was 1.14 µM in [1]; 0.31 µM in assay [2]; 0.397 µM in assay [3]; 0.36 µM in assay [4]; 1.3 µM in assay [5]; 0.654 µM in assay [7]. Moreover, the GI50 in assay [8] is 0.462 µM; in assay [10] it was 1.47 µM; in assay [9], 0.366 µM. The TGI was 10.3 µM in [1]; 3.29 µM in assay [3]; > 100 µM in [4]; > 100 µM in assay [5]; > 100 µM in [7]; 4.31 µM in assay [8]. The TGI in assay [10] was 8.56 µM; in assay [9], 1.62 µM.
As to `C=C1c2ccoc2C[C@H]2[C@H]1CC[C@@]1(O)[C@@](C)(C(=O)OC)CCC[C@]21C`, the GI50 is 27.9 µM in assay [1]; 40.7 µM in assay [3]; 9.51 µM in [4]; 17.5 µM in assay [5]; 24.9 µM in assay [6]; 23.9 µM in [7]. Also, the GI50 is 11.2 µM in assay [8], 35.7 µM in assay [10] and 48 µM in assay [9]. Further, the TGI in assay [1] is 81.9 µM; in assay [3], > 100 µM; in assay [4] it was > 100 µM; in assay [5], 81.6 µM; in assay [6], 64.9 µM; in [7], 54.3 µM. Also, the TGI in assay [8] is 38.4 µM; in assay [10], > 100 µM; in assay [9], > 100 µM.
On to `CCOC(=O)C1CCCCN1C(=O)c1ccc(Nc2cnc3cc(C(F)(F)F)ccc3n2)cc1` (stereo not drawn), for which the GI50 in [1] was 3.31 µM; in [2] it was 19.1 µM; in assay [3], 17.6 µM; in assay [4] it was 10.2 µM; in [6] it was 17.2 µM; in assay [7] it was 14.7 µM. Moreover, the GI50 was 19.3 µM in [8], 15.7 µM in assay [10] and 3.23 µM in assay [9]. In addition, the TGI in [1] was 9.24 µM; in assay [2], > 100 µM; in assay [3], 32.5 µM; in [4] it was 25.1 µM; in [6], 42.6 µM; in assay [7], 28.3 µM. Further, the TGI in assay [8] was 40.8 µM; in [10] it was 29.8 µM; in [9], 8.45 µM.
`CCSc1nc(SCC)c2c(-c3ccc(OC)c(OC)c3)c(C#N)c(SCC)nc2n1`: the GI50 in assay [1] was 12.9 µM; in assay [2], 81.1 µM; in assay [3] it was 22.6 µM; in assay [4], 14.8 µM; in assay [6], 24.6 µM; in [7], 18.7 µM. Further, the GI50 was 33.5 µM in assay [8], 39.4 µM in assay [10] and 59.7 µM in [9]. Further, the TGI is 39.9 µM in assay [1]; > 100 µM in [2]; 63.2 µM in [3]; > 100 µM in assay [4]; 61.2 µM in [6]; 57.8 µM in assay [7]. The TGI in assay [8], in assay [10] and in assay [9] was > 100 µM each time.
With `[O-]c1ccccc1/C=N/C(/N=C/c1ccccc1[O-])c1ccccc1O.[O-]c1ccccc1/C=N/C(/N=C/c1ccccc1[O-])c1ccccc1O.[Zr+4]`, the GI50 in assay [1] is 31.8 µM; in assay [2], 30.6 µM; in assay [3], 34.2 µM; in assay [4], 35.9 µM; in assay [5] it was 42 µM; in assay [6], 50.3 µM. The figures for the GI50 in assay [7], in [8] and in [10] were 28.2 µM, 56.4 µM and 33.4 µM, respectively. Moreover, the TGI in [1], in assay [2], in assay [3], in [4], in assay [5] and in assay [6] was > 100 µM each time. Also, the TGI in assay [7], in [8] and in assay [10] was > 100 µM each time.
Take `CN(C)C(=O)c1cnc2oc3ccc(O)cc3c2c1-c1ccccc1`: the GI50 in [1], in [2], in assay [3], in assay [4], in assay [6] and in [7] was > 25 µM in each case. The GI50 in [8], in [10] and in assay [9] was > 25 µM each time. Further, the TGI in assay [1], in assay [2], in assay [3], in assay [4], in [6] and in assay [7] was > 25 µM each time. For the same molecule, the TGI in assay [8], in assay [10] and in assay [9] was > 25 µM throughout.
As to `CN1CCc2[nH]nc(-c3n[nH]c4c3CN(C)CC4)c2C1`, the TGI in assay [1], in assay [3], in assay [4], in [5], in assay [6] and in [7] was > 100 µM each time. Also, the TGI in assay [8], in assay [10] and in assay [9] was > 100 µM throughout.

(Values after PubChem BioAssay (NCI).)
